Laboratory results: ChEMBL document CHEMBL3393036, “Tetra-substituted pyridinylimidazoles as dual inhibitors of p38α mitogen-activated protein kinase and c-Jun N-terminal kinase 3 for potential treatment of neurodegenerative diseases” (J Med Chem, 2015)
Converted amounts (≈) assume the structure as drawn.

Assays:
[1] = molecular target: Mitogen-activated protein kinase 14 (Homo sapiens, UniProt Q16539); experiment: Inhibition of p38alpha (unknown origin) assessed as phosphorylation of ATF-2 by ELISA
[2] = molecular target: Mitogen-activated protein kinase 10 (Homo sapiens, UniProt P53779); experiment: Inhibition of JNK3 (unknown origin) assessed as phosphorylation of ATF-2 by ELISA
[3] = species: Homo sapiens; experiment: Selectivity ratio of IC50 for JNK3 (unknown origin) to IC50 for p38alpha (unknown origin)
[4] = test system: U2OS; experiment: Cytotoxicity against human U2OS cells assessed as morphology up to 50 uM by DAPI staining assay; assay type: cell-based
[5] = Solubility in aqueous PBS-buffer at pH 7.4; assay type: physicochemical
[6] = Metabolic stability in human liver microsomes assessed as compound remaining after 240 mins by LC-MS/MS analysis; assay type: ADME; conditions: read-out: Stability

Sequence of Mitogen-activated protein kinase 10 (P53779 whole entry): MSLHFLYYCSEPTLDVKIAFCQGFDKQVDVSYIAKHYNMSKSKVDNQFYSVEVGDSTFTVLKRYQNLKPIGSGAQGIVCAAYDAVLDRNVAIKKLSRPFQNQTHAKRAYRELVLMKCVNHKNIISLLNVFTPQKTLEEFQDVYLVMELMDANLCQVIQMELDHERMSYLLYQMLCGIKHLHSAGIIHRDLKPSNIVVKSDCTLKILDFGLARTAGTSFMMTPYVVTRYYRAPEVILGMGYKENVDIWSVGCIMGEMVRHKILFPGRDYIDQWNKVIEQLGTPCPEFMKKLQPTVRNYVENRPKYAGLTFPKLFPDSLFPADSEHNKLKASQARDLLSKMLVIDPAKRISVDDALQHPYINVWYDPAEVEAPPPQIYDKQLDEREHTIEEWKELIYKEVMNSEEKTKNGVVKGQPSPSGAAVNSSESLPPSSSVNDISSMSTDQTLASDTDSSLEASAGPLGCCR
Sequence of Mitogen-activated protein kinase 14 (Q16539 whole entry): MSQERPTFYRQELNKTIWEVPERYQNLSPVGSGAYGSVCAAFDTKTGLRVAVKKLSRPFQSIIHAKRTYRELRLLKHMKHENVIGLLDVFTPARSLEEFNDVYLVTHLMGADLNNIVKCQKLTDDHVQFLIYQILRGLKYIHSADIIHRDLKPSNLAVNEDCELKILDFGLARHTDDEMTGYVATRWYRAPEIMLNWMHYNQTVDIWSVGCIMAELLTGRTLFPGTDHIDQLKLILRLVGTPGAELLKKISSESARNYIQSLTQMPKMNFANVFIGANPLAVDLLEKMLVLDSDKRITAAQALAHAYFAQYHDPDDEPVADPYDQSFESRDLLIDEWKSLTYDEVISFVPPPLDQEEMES

IC50 [1] | IC50 [2] | Ratio IC50 [3] | solubility [5] | remaining at 4 h [6] | Compound | Activity [4]
655 nM | 1220 nM | 1.8 |  |  | CCOC(=O)/C=C/Sc1nc(-c2ccc(F)cc2)c(-c2ccnc(NC(C)=O)c2)n1CC1CC1 | 
128 nM | 12 nM | 0.1 |  |  | COC(Cn1c(S/C=C\C(=O)O)nc(-c2ccc(F)cc2)c1-c1ccnc(NC2CC2)c1)OC | 
34 nM | 26 nM | 0.8 | 930 µg/mL (≈ 1860 µM) | 56% | CCC(C)Nc1cc(-c2c(-c3ccc(F)cc3)nc(S/C=C\C(=O)O)n2CC(OC)OC)ccn1 (stereo not given) | Non-toxic
30 nM | 18 nM | 0.6 | 1200 µg/mL (≈ 2650 µM) | 70% | CC(=O)Nc1cc(-c2c(-c3ccc(F)cc3)nc(S/C=C\C(=O)O)n2CC2CC2)ccn1 | Non-toxic
146 nM | 61 nM | 0.4 |  |  | CCNC(=O)N1CCC(Nc2cc(-c3c(-c4ccc(F)cc4)nc(S/C=C\C(=O)O)n3C)ccn2)CC1 | 
1670 nM | 266 nM | 0.2 |  |  | CC(=O)Nc1cc(-c2c(-c3ccc(F)cc3)nc(SCC(=O)O)n2C)ccn1 | 
36 nM | 255 nM | 7.1 |  |  | CC(=O)CSc1nc(-c2ccc(F)cc2)c(-c2ccnc(NC(C)=O)c2)n1C | 
36 nM | 17 nM | 0.5 |  |  | O=C(O)/C=C\Sc1nc(-c2ccc(F)cc2)c(-c2ccnc(Nc3ccccc3)c2)[nH]1 | Non-toxic
181 nM | 213 nM | 1.2 |  |  | O=C(O)/C=C/Sc1nc(-c2ccc(F)cc2)c(-c2ccnc(Nc3ccccc3)c2)n1CC1CC1 | 
2180 nM | 2170 nM | 1 |  |  | CCOC(=O)/C=C/Sc1nc(-c2ccc(F)cc2)c(-c2ccnc(NC(C)=O)c2)n1CC(OC)OC | 
208 nM | 170 nM | 0.8 |  |  | CC(=O)Nc1cc(-c2c(-c3ccc(F)cc3)nc(S/C=C/C(=O)O)n2CC2CC2)ccn1 | 
335 nM | 33 nM | 0.1 |  |  | COC(Cn1c(S/C=C\C(=O)O)nc(-c2ccc(F)cc2)c1-c1ccnc(NC(C)=O)c1)OC | 
612 nM | 2630 nM | 4.3 |  |  | CC(=O)Nc1cc(-c2c(-c3ccc(F)cc3)nc(SC3CCC(C(=O)O)CC3O)n2CC2CCCO2)ccn1 (racemic) | 
191 nM | 55 nM | 0.3 |  |  | CC(=O)Nc1cc(-c2c(-c3ccc(F)cc3)nc(S/C=C\C(=O)O)n2C)ccn1 | 
764 nM | 180 nM | 0.2 |  |  | CC(=O)Nc1cc(-c2c(-c3ccc(F)cc3)nc(SC3CCC(C(=O)O)CC3O)n2C)ccn1 (stereo not given) | 
642 nM | 4220 nM | 6.6 |  |  | COC(Cn1c(SCC#N)nc(-c2ccc(F)cc2)c1-c1ccnc(F)c1)OC | 
723 nM | 226 nM | 0.3 |  |  | CC(=O)Nc1cc(-c2c(-c3ccc(F)cc3)nc(S/C=C\C(=O)O)n2CC(O)CO)ccn1 (stereo not given) | 
451 nM | 678 nM | 1.5 |  |  | CCOC(=O)/C=C/Sc1nc(-c2ccc(F)cc2)c(-c2ccnc(NC(C)=O)c2)n1C1CC1 | 
153 nM | 79 nM | 0.5 |  |  | COC(Cn1c(SCC#N)nc(-c2ccc(F)cc2)c1-c1ccnc(NC2CC2)c1)OC | Non-toxic
140 nM | 1190 nM | 8.5 |  |  | CC(=O)Nc1cc(-c2c(-c3ccc(F)cc3)nc(SCC(=O)N(C)C)n2C)ccn1 | 
354 nM | 54 nM | 0.2 |  |  | O=C(O)/C=C\Sc1nc(-c2ccc(F)cc2)c(-c2ccnc(Nc3ccccc3)c2)n1CC1CC1 | 
146 nM | 80 nM | 0.5 |  |  | CCOC(=O)/C=C\Sc1nc(-c2ccc(F)cc2)c(-c2ccnc(Nc3ccccc3)c2)[nH]1 | 
297 nM | 199 nM | 0.7 |  |  | COC(=O)CSc1nc(-c2ccc(F)cc2)c(-c2ccnc(NC(C)=O)c2)n1C | 
246 nM | 91 nM | 0.4 |  |  | CC(=O)Nc1cc(-c2c(-c3ccc(F)cc3)nc(SCCC(=O)O)n2C)ccn1 | 
211 nM | 47 nM | 0.2 |  |  | CC(=O)Nc1cc(-c2c(-c3ccc(F)cc3)nc(S/C=C\C(=O)O)n2C2CCC2)ccn1 | 
39 nM | 25 nM | 0.6 |  |  | CC(=O)Nc1cc(-c2c(-c3ccc(F)cc3)nc(S/C=C\C(=O)O)n2CC2CCCCC2)ccn1 | 
164 nM | 45 nM | 0.3 |  |  | CC(=O)Nc1cc(-c2c(-c3ccc(F)cc3)nc(S/C=C\C(=O)O)n2C2CCCC2)ccn1 | 
416 nM | 79 nM | 0.2 |  |  | CC(=O)Nc1cc(-c2c(-c3ccc(F)cc3)nc(SC3CCC(C(=O)O)CC3O)n2C2CCCCC2)ccn1 (stereo not given) | 
1700 nM | 269 nM | 0.2 |  |  | COC(Cn1c(SCCC(=O)O)nc(-c2ccc(F)cc2)c1-c1ccnc(NC(C)=O)c1)OC | 
